Reference: US6906205B2, “Spiro and dispiro 1,2,4-trioxolane antimalarials” (Medicines for Malaria Venture MMV, priority 2002, dated 2005)
Converted amounts (≈) assume the structure as drawn.

Columns and labels:
[1] = system: P. falciparum NF54 strain (sensitive to standard antimalarials); test: semiautomated microdilution assay, [3H]-hypoxanthine incorporation, NF54 strain; type: cell-based, Plasmodium falciparum; details: NF54 strain, 72 h incubation
Summary of the method: (§1)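 Logit regression analysis was used to estimate IC50 values. Parasites were intraerythrocytic forms from asynchronous stock cultures, and compounds were tested by semiautomated microdilution.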

[2] = system: P. falciparum K1 strain (Thailand resistant to chloroquine); test: semiautomated microdilution assay, [3H]-hypoxanthine incorporation, K1 strain; type: cell-based, Plasmodium falciparum; details: K1 strain, 72 h incubation
Summary of the method: as §1

[3] = system: ANKA strain of P. berghei; test: single dose STI in vivo screen in infected mice; design: species or system Plasmodium berghei; details: for Activity (%) po / Activity (%) sc / Activity (%) SSVpo: percent reduction in parasitemia day 3 post-infection, mice; for Activity (%) po / Survival (days) po: single 10 mg/kg po in 3% ethanol and 7% Tween 80; for Activity (%) sc / Survival (days) sc: single 10 mg/kg sc in 3% ethanol and 7% Tween 80; for Activity (%) SSVpo: single po dose in standard suspending vehicle (SSV); for Survival (days) po / Survival (days) sc / Survival (days) SSVpo: untreated control 5.6 ± 0.3; for Survival (days) SSVpo: single po dose in SSV
Summary of the method: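 Groups of 3-5 Moro SPF or NMRI mice infected with the ANKA strain of P. berghei received a single dose of trioxolane on day one post-infection. The compound was given in 3% ethanol and 7% Tween 80 or in SSV (0.5% w/v CMC, 0.5% v/v benzyl alcohol, 0.4% v/v Tween 80, 0.9% w/v sodium chloride in water). Antimalarial activity was scored as percent reduction in parasitemia on day three and as survival time versus untreated controls. Survival to day 30 counted as cure.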

| SMILES | IC50 (ng/ml) NF54 [1] | IC50 (ng/ml) K1 [2] | Activity (%) po [3] [%] | Activity (%) sc [3] [%] | Activity (%) SSVpo [3] [%] | Survival (days) po [3] | Survival (days) sc [3] | Survival (days) SSVpo [3] |
| --- | --- | --- | --- | --- | --- | --- | --- | --- |
| O=S(=O)(c1cccc2cccnc12)N1CCC2(CC1)OOC1(O2)C2CC3CC(C2)CC1C3 (centres unmarked) [OZ114] | 2.2 ng/mL (≈ 4.82 nM) | 3.7 ng/mL (≈ 8.1 nM) | 0 | 99.64 | 0 | 5.7 days | 8.7 days | 6.0 days |
| CCCCCCCCS(=O)(=O)N1CCC2(CC1)OOC1(O2)C2CC3CC(C2)CC1C3 (centres unmarked) [OZ115] | 6.9 ng/mL (≈ 15.6 nM) | 11 ng/mL (≈ 24.9 nM) | 33 | 97 | 0 | 6.3 days | 7.3 days | 5.7 days |
| O=C(NO)[C@H]1CC[C@]2(CC1)OOC1(O2)C2CC3CC(C2)CC1C3 (some centres unmarked) [OZ116] | 3.3 ng/mL (≈ 10.2 nM) | 4.2 ng/mL (≈ 13 nM) | 97 | 96 | 96 | 7.7 days | 8.0 days | 8.3 days |
| NCC1(c2ccccc2)CCC2(CC1)OOC1(O2)C2CC3CC(C2)CC1C3 (centres unmarked) [OZ117] | 1.2 ng/mL (≈ 3.25 nM) | 2.1 ng/mL (≈ 5.68 nM) | 95 | 99.94 | 96 | 7.0 days | 8.7 days | 7.7 days |
| CC(=O)OC[C@H]1CC[C@]2(CC1)OOC1(O2)C2CC3CC(C2)CC1C3 (some centres unmarked) [OZ118] | 0.24 ng/mL (≈ 0.713 nM) | 1.0 ng/mL (≈ 2.97 nM) | 99.0 | 99.57 | 98 | 7.0 days | 8.3 days | 8.0 days |
| CCOC(=O)C1(C(=O)OCC)COC2(CCC3(CC2)OOC2(O3)C3CC4CC(C3)CC2C4)OC1 (centres unmarked) [OZ120] | 0.59 ng/mL (≈ 1.23 nM) | 1.2 ng/mL (≈ 2.5 nM) | 33 | 96 | 8 | 6.0 days | 8.0 days | 5.7 days |
| OCC1(CO)COC2(CCC3(CC2)OOC2(O3)C3CC4CC(C3)CC2C4)OC1 (centres unmarked) [OZ121] | 0.41 ng/mL (≈ 1.03 nM) | 0.96 ng/mL (≈ 2.42 nM) | 91 | 99.61 | 98 | 7.3 days | 7.3 days | 8.0 days |
| O=C(O)C1(C(=O)O)COC2(CCC3(CC2)OOC2(O3)C3CC4CC(C3)CC2C4)OC1 (centres unmarked) [OZ122] | >100/>100 ng/ml | >100/>100 ng/ml | 10 | 0 | 3 | 5.7 days | 5.0 days | 5.3 days |
| BrC[C@H]1CC[C@]2(CC1)OOC1(O2)C2CC3CC(C2)CC1C3 (some centres unmarked) [OZ123] | 1.9 ng/mL (≈ 5.32 nM) | 1.6 ng/mL (≈ 4.48 nM) | 99.66 | 99.96 | 94 | 8.0 days | 16 days | 7.0 days |
| N#Cc1ccc(C2(c3ccccc3)OOC3(O2)C2CC4CC(C2)CC3C4)cc1 (centres unmarked) [OZ124] | 1.7 ng/mL (≈ 4.55 nM) | 2.1 ng/mL (≈ 5.62 nM) | 72 | 86 | 17 | 6.3 days | 7.0 days | 5.3 days |
| CCOC(=O)c1ccc(C2(c3ccc(C(=O)OCC)cc3)OOC3(O2)C2CC4CC(C2)CC3C4)cc1 (centres unmarked) [OZ125] | > 100 ng/mL | 68 ng/mL (≈ 138 nM) | 8 | 0 | 0 | 5.3 days | 6.0 days | 5.7 days |
| C=C1COC2(CCC3(CC2)OOC2(O3)C3CC4CC(C3)CC2C4)OC1 (centres unmarked) [OZ128] | 1.1 ng/mL (≈ 3.16 nM) | 0.59 ng/mL (≈ 1.69 nM) | 99.93 | 99.98 | 99.95 | 8.3 days | 11.7 days | 8.7 days |
| CC(C)(CO)NC(=O)[C@H]1CC[C@]2(CC1)OOC1(O2)C2CC3CC(C2)CC1C3 (some centres unmarked) [OZ129] | 10/>10 ng/ml | 10/>10 ng/ml | 0 | 0 | 4 | 5.3 days | 5.7 days | 5.7 days |
| O=S(=O)(Cc1ccccc1)N1CCC2(CC1)OOC1(O2)C2CC3CC(C2)CC1C3 (centres unmarked) [OZ131] | 4.1 ng/mL (≈ 9.77 nM) | 1.7 ng/mL (≈ 4.05 nM) | 21 | 90 | 41 | 5.7 days | 8.0 days | 6.0 days |
| O=C(O)c1ccccc1C(=O)N1CCC2(CC1)OOC1(O2)C2CC3CC(C2)CC1C3 (centres unmarked) [OZ132] | > 10 ng/mL | 9.8 ng/mL (≈ 23.7 nM) | 38 | 40 | 0 | 6.3 days | 6.3 days | 5.7 days |
| c1ccc2c(c1)OCCC21OOC2(O1)C1CC3CC(C1)CC2C3 (centres unmarked) [OZ134] | 1.1 ng/mL (≈ 3.5 nM) | 0.88 ng/mL (≈ 2.8 nM) | 72 | 99.95 | 27 | 6.3 days | 15.3 days | 6.0 days |
| O=C(O)c1ccc(C2(c3ccc(C(=O)O)cc3)OOC3(O2)C2CC4CC(C2)CC3C4)cc1 (centres unmarked) [OZ135] | >100/>100 ng/ml | >100/>100 ng/ml | 1 | 0 | 0 | 5.3/5.3/5.3 days | 5.3/5.3/5.3 days | 5.3/5.3/5.3 days |
| COC(=O)c1ccc(C2(c3ccccc3)OOC3(O2)C2CC4CC(C2)CC3C4)cc1 (centres unmarked) [OZ138] | 19 ng/mL (≈ 46.7 nM) | 10 ng/mL (≈ 24.6 nM) | 0 | 7 | 5 | 5.7 days | 6.3 days | 6.3 days |
| O=C(OC[C@H]1CC[C@]2(CC1)OOC1(O2)C2CC3CC(C2)CC1C3)n1ccnc1 (some centres unmarked) [OZ141] | 1.9 ng/mL (≈ 4.89 nM) | 1.7 ng/mL (≈ 4.38 nM) | 98 | 99.89 | 97 | 8.0 days | 8.7 days | 8.0 days |
